In patent US9662329B2, “Use of survivin antagonists in polyomavirus-related disease” (University of Pittsburgh—Of the Commonwealth System of …, priority 2012, dated 2017):
pEC50: −log10 of the molar value.

What was measured:
MKL-1 = experiment: Cell Titer Glo dose-response study; type: cell-based, human; settings: Homo sapiens, MKL-1, read-out: EC50 concentrations for MCC cell lines, MKL-1
Source text: (§1) Seven Merkel cell carcinoma cell lines: MKL-1, MKL-2, MS-1, UISO, MCC13, MCC26 and WaGa (kind gift of Jurgen Becker (Houben et al., Merkel cell polyomavirus-infected Merkel cell carcinoma cells require expression of viral T antigens. J Virol 84, 7064 (July, 2010); Ronan et al., Merkel cell carcinoma: in vitro and in vivo characteristics of a new cell line. J Am Acad Dermatol 29, 715 (November, 1993); Rosen et al., Establishment and characterization of a neuroendocrine skin carcinoma cell line. Lab Invest 56, 302 (March, 1987)); NCI-H69 small cell lung cancer cell line (ATCC); 293 human embryonic kidney cells (ATCC); U2OS osteosarcoma cell line (kind gift of Ole Gjoerup); BJhTERT immortalized foreskin fibroblast cell line (kind gift of Ole Gjoerup); and BJ primary foreskin fibroblasts (ATCC) were used to screen and evaluate the small molecules examined in this study (Houben et al., J Virol 84, 7064 (July, 2010); Ronan et al., J Am Acad Dermatol 29, 715 (November, 1993); Rosen et al., Lab Invest 56, 302 (March, 1987)). The Merkel cell lines and NCI-H69 were grown in RPMI 1640 supplemented with 10% fetal calf serum, penicillin and streptomycin at 37° C. in humidified air containing 5% CO2. The remaining cell lines were grown in DMEM supplemented with 10% fetal calf serum.
(§2) For EC50 measurements, dose-response curves were established for 17 drugs obtained individually in bulk stocks. Iodoacetamide (I1149), sanguarine chloride (S5890), NSC95397 (N1786), chelerythrine chloride (C2932), calmidazolium chloride (C3930), tetraethylthiuram disulfide (T1132), bay 11-7085 (B5681), quinacrine dihydro chloride (Q3251), ellipticine (E3380), amsacrine hydrochloride (A9809) and nutlin-3 (N6287) were purchased from Sigma Aldrich, USA.
(§3) Compounds that met the selection criteria <10% cell survival were purchased or obtained in bulk from NCI/NIH Developmental Therapeutics Program. Serial drug dilutions from 10^−4 M to 10^−9 M were used on MCC and non-MCC cell lines. Cells were seeded into 384-well plates at 6000 cells in 50 μl of medium per well. After 24 hours, 25 μl of 3× drugs were added at increasing concentration to each well. Cell viability was then measured using Cell Titer Glo (Promega) kit following manufacturer's instructions as described previously. Each drug concentration was tested in triplicate for each cell line and experiments were repeated twice. EC50 doses for the drugs were calculated using a four parameter logistic equation (GraphPad Prism).

MKL-2 = experiment: Cell Titer Glo dose-response study; type: cell-based, human; settings: Homo sapiens, read-out: EC50 concentrations for MCC cell lines, MKL-2
Source text: as §1, §2, §3

MS-1 = experiment: Cell Titer Glo dose-response study; type: cell-based, human; settings: Homo sapiens, MS-1, read-out: EC50 concentrations for MCC cell lines, MS-1
Source text: as §1, §2, §3

UISO = experiment: Cell Titer Glo dose-response study; type: cell-based, human; settings: Homo sapiens, read-out: EC50 concentrations for MCC cell lines, UISO
Source text: as §1, §2, §3

WaGa = experiment: Cell Titer Glo dose-response study; type: cell-based, human; settings: Homo sapiens, read-out: EC50 concentrations for MCC cell lines, WaGa
Source text: as §1, §2, §3

MCC cell lines = experiment: cells; settings: Homo sapiens, read-out: EC50, active in vitro at low doses
Protocol: as §3, with “Serial” for “Compounds that met the selection criteria <10% cell survival were purchased or obtained in bulk from NCI/NIH Developmental Therapeutics Program. Serial”

MKL-1 cells = experiment: Immunoblotting for cPARP, cCaspase 3 and LC3; type: cell-based, human; settings: 100 nM, 48 hours
[1] = tested on: human MKL-1 MCC xenografts
Protocol: Compounds were dissolved in sterile 0.9% saline solution for administration to animals.
Six-week-old female triple immune-deficient NSG (Nod-SCID gamma) mice (Jackson Laboratory) were maintained in a specific pathogen-free environment.
MCC cells were checked for viability >90% by trypan blue staining, resuspended in PBS (2×10^7 cells in 100 μl) and inoculated subcutaneously into the right flank of mice.
All treatments were delivered for three consecutive weeks. […] YM-155 (2 mg/kg) was given intraperitoneally on five consecutive days, followed by a two-day treatment free interval.
Two-tailed paired Student's t test was used to analyze statistical differences in qRT-PCR results. Mouse survival curves were estimated using the Kaplan-Meier product-limit method and were compared using the log-rank test (GraphPad Software, La Jolla, Calif.). A piecewise linear hierarchical Bayesian model (Zhao et al., Bayesian hierarchical changepoint methods in modeling the tumor growth profiles in xenograft experiments. Clinical Cancer Res 17, 1057 (Mar. 1, 2011)) was used to characterize differences in tumor volumes and growth between treatments.
Cells of Merkel cell polyomavirus (+) carcinoma cell lines MKL-1, MS-1, WaGa, and MKL-2 were checked for viability >90% by trypan blue staining, resuspended in PBS (2×10^7 cells in 100 μl) and inoculated subcutaneously into the right flank of mice.
YM-155 was given intraperitoneally on five consecutive days, followed by a two-day treatment free interval. For YM155 this treatment continued for three weeks or until mice were euthanized. Mice were euthanized upon showing a tumor having a diameter of 20 mm, or upon a showing of significant distress (>20% weight loss or when they became moribund). Caliper measurements of the longest perpendicular tumor diameters were performed every other day and tumor volumes were calculated using the formula: (width)^2×(length/2). Survival was defined as time from the first day of treatment until death/sacrifice.

[2] = Example 2, 1 mg/kg for three weeks
[3] = three weeks treatment, bortezomib 1 mg/kg twice weekly, YM155 2 mg/kg 5 times weekly

Compound `CC(C)C[C@H](NC(=O)[C@H](Cc1ccccc1)NC(=O)c1cnccn1)B(O)O` [Bortezomib] has a pEC50 (MKL-1) of 7.89, a pEC50 (MKL-2) of 8.30 and a pEC50 (MS-1) of 8.70. It also gave a pEC50 (UISO) of 8.52, a pEC50 (WaGa) of 9.00 and a pEC50 (MCC cell lines) of 7.88 to 8.89. For the same compound, the “apoptosis measured by caspase 3 and PARP cleavage” value (MKL-1 cells) was “activated PARP and caspase cleavage”, the “survival compared to saline” value [1, 2] was “survived as long as those receiving saline” and the “time after treatment began at which the last animal died” value [1, 2] was “approximately one month”. For the same compound, the “tolerability / adverse effects in mice” value ([1]; bortezomib 1 mg/kg twice weekly, YM155 2 mg/kg 5 times weekly) was “associated with mouse lethargy and weight loss”, the “mice dying during treatment (up to day 19)” value [1, 3] was 67% and the “xenograft tumor growth / progression during treatment” value [1, 3] was “did not significantly affect MCC tumor progression or volume”.
